{"source": "patent US20260166159A1", "about": "“KRAS G12D DEGRADATION AGENT, AND PREPARATION METHOD AND USE THEREFOR” (LEADINGTAC PHARMACEUTICAL (SHAOXING) CO., LTD., priority 2022, published 2026)", "type_in_all_cases": "cell-based", "key": {"KRAS-G12D [1]": {"target": "T1, KRAS-G12D (Homo sapiens, UniProt P01116, G12D)", "T1 construct": "endogenous in cells; host or cells: A-427 (ATCC), AGS, AsPc-1, Panc 04.03", "T1 sequence (P01116 1-188 isoform P01116-2 G12D)": "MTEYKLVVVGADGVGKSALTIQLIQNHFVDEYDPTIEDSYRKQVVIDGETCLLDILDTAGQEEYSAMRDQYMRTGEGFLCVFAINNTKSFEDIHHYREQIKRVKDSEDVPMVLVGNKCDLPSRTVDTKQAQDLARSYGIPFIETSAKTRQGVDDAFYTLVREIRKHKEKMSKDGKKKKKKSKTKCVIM", "assay": "KRAS-G12D degradation assay (Western Blot), A-427 cells", "conditions": "A427 cells, 24 h; for Dmax: A-427", "experimental": "(§1) The degradation effects of the compounds on KRAS-G12D were investigated on KRAS G12D mutant human lung cancer cell A-427 (ATCC), KRAS G12D mutant human gastric cancer cell AGS, KRAS G12D mutant human metastatic pancreatic cancer cell AsPc-1, and KRAS G12D mutant human pancreatic adenocarcinoma cell Panc 04.03. The specific procedures were as follows: 0.95 mL of cells were seeded into each well of a 24-well cell culture plate to achieve a cell density of 5×10^5 cells/well; and the cell plate was incubated in an incubator at 37° C. with 5% CO2 overnight. Then 50 μL of the compound solution after dilution was added to each of the wells with the corresponding cells, so that the final concentration of the compound was in a range of 0.03-3000 nM. The final concentration of DMSO was 0.25%. After the compounds were added, the cell plate was incubated in the incubator at 37° C. with 5% CO2 for 24 h. The culture medium in the 24-well cell culture plate was removed, and the plate was washed twice with 1×PBS (KeyGEN). 120 μL of RIPA (strong) lysis buffer (Beyotime) supplemented with 1 mM phenylmethylsulfonyl fluoride, a protease inhibitor mixture (Beyotime), and a protease phosphatase inhibitor mixture (Beyotime) was added to lyse adherent A-427 cells at the bottom of the cell culture plate. After the plate was left to stand on ice for 30 min, the protein lysate in each well was transferred to a 1.5 mL centrifuge tube and centrifuged at 15000 g for 20 min at 4° C. The cell lysate supernatants after centrifugation were cryopreserved in a refrigerator at −80° C. for later use.\n(§2) After the samples of the cell lysate supernatants that had been prepared were thawed from the refrigerator at −80° C., the total protein concentrations of the cell lysates were determined using a BCA protein quantification kit (Tiangen). The total protein concentrations of the samples were then adjusted to 0.5 μg/μL with PBS and 5×SDS-PAGE protein loading buffer (Beyotime), and the samples were incubated in a water bath at 100° C. for 15 min. The samples were then incubated in an ice bath for 5 min and centrifuged at 14000 g for 1 min at 4° C., and the supernatants were mixed well as loading samples for the Western Blot assay. The samples were loaded into wells of a 10% precast gel (KeyGEN) with a loading volume of 10 μL (total protein: 5 μg), a sufficient Tris-MOPS-SDS running buffer (Adamas) was added, and then electrophoresis was performed at a constant voltage of 120 V for 55 min. After the electrophoresis, the proteins on the gel were transferred to PVDF membranes at a constant current of 250 mA for 55 min. After the membrane transfer, the PVDF membranes were incubated in 1× Quick Block blocking buffer (Beyotime) at room temperature for 30 min. After the blocking, the PVDF membranes were separately incubated at 4° C. overnight with the KRAS antibody (Abcam) diluted in a ratio of 1:1000 and the […] antibody (Abcam) diluted in a ratio of 1:2000 in 5% BSA as the diluent, and then washed with 1×TBST buffer (2.4 g of Tris, 8.8 g of NaCl, 1.5 mL of Tween 20, with pH adjusted to 7.4, with the volume brought to 1 L) 3 times for 10 min/time. The membranes were incubated with a secondary antibody (Abcam) diluted in 5% BSA at room temperature for 2 h, and then washed with 1×TBST buffer 3 times for 10 min/time. Finally, the membranes were incubated with Clarity Western ECL Substrate (BIO-RAD) for 5 min for luminescence and color development, and a ChemiScope 6200 Touch chemiluminescence imaging system (Clinx) was used for color development and protein mapping. Gray value analysis of the protein maps was performed using the chemiluminescence analysis software (Clinx). The gray correction value for each sample was calculated using the formula: gray correction value=(gray value of target protein/gray value of corresponding internal reference)×10^3. Then degradation rates were calculated by comparison with the gray correction value of the control group. […]"}, "[2]": {"tested_on": "KRAS G12D mutant human gastric cancer cell AGS", "assay": "3D cell proliferation inhibition assay, AGS", "conditions": "168 h, 7 days, CTG", "excerpt": "(§3) The inhibitory effects of the compounds on 3D cell proliferation were investigated on KRAS G12D mutant human lung cancer cell A427, KRAS G12D mutant human gastric cancer cell AGS, KRAS G12D mutant human metastatic pancreatic cancer cell AsPc-1, KRAS G12D mutant human pancreatic cancer cell Panc 04.03, KRAS G12D mutant human pancreatic cancer cell HPAC, KRAS G12V mutant human lung squamous cell carcinoma cell SW900, and KRAS WT human gastric cancer cell MKN1. The specific procedures were as follows:\n(§4) 10 μL of each compound solution diluted in a gradient was added to corresponding wells of a 96-well low-adsorption microplate (PerkinElmer), so that the final concentrations of the test compounds in the reaction system were in a range of 10000-0.026 nM. The final concentration of DMSO was 0.2%. Then 90 µL of cells were correspondingly seeded into each well to achieve a cell density of 5×10^2 cells/well (the cell density of SW900 was 5×10^1 cells/well, and the cell density of MKN1 was 1×10^3 cells/well). In addition to test wells for the test compounds, both a DMSO control well and a medium control well were set, with the DMSO control well containing DMSO and cells and the medium well containing only a medium. After the sample loading, the 96-well low-adsorption microplate was incubated in an incubator at 37° C. with 5% carbon dioxide for 7 days. After 7 days, the microplate was taken out, and 100 μL of CTG reagent (Promega) was added to each well. The plate was incubated at room temperature for 60 min and read on a microplate reader EnVision by the chemiluminescence program. The inhibition rates of the compounds at each concentration were calculated using the formula for the percentage inhibition of cell proliferation: inhibition rate %=(mean value of DMSO control group−single concentration reading value of compound)/(mean value of DMSO control group−mean value of medium control group)×100. Then non-linear curve fittings for logarithmic concentration-inhibition rate were performed by GraphPad Prism 8, and the IC50 values of the compounds were obtained (Table 5)."}, "[3]": {"tested_on": "KRAS G12D mutant human lung cancer cell A427", "assay": "3D cell proliferation inhibition assay, A427", "conditions": "A-427, 168 h, A427, 7 days, CTG", "excerpt": "as §3, §4"}, "KRAS-G12D [4]": {"target": "T1, KRAS-G12D", "assay": "KRAS-G12D degradation assay (Western Blot), AsPc-1 cells", "conditions": "for DC50: 24 h; for Dmax: ASPC1, 24 h", "experimental": "as §1, §2"}}}
{"smiles": "CCc1c(F)ccc2cc(O)cc(-c3ncc4c(N5CC6CCC(C5)N6)nc(OCC5(CN6CCN(CC7CCC8(CC7)CCN(C(=O)c7ccc(C)c(N9CCC(=O)NC9=O)c7)CC8)CC6)CC5)nc4c3F)c12", "note": "[Example 37, 1-(5-(9-((4-((1-(((4-(3,8-diazabicyclo[3.2.1]octan-3-yl)-7-(8-ethyl-7-fluoro-3-hydroxynaphthalen-1-yl)-8-fluoropyrido[4,3-d]pyrimidin-2-yl)oxy)methyl)cyclopropyl)methyl)piperazin-1-yl)methyl)-3-azaspiro[5.5]undecane-3-carbonyl)-2-methylphenyl)dihydropyrimidine-2,4(1H,3H)-dione]", "values": [{"measurement": "DC50", "setting": "KRAS-G12D [1]; class symbols", "value": "≤ 50", "unit": "nM"}, {"measurement": "Dmax", "setting": "KRAS-G12D [1]; class symbols", "value": "80 to 100", "unit": "%"}, {"measurement": "IC50", "setting": "[2]; class symbols", "value": "≤ 50", "unit": "nM"}, {"measurement": "IC50", "setting": "[3]; class symbols", "value": "100 to 500", "unit": "nM"}]}
{"smiles": "C#Cc1c(F)ccc2cc(O)cc(-c3ncc4c(N5CC6CCC(C5)N6)nc(OCC5(CN6CCN(CC7CCC8(CC7)CCN(C(=O)c7ccc(OC(F)(F)F)c(N9CCC(=O)NC9=O)c7)CC8)CC6)CC5)nc4c3F)c12", "note": "[Example 39, 1-(5-(9-((4-((1-(((4-(3,8-diazabicyclo[3.2.1]octan-3-yl)-7-(8-ethynyl-7-fluoro-3-hydroxynaphthalen-1-yl)-8-fluoropyrido[4,3-d]pyrimidin-2-yl)oxy)methyl)cyclopropyl)methyl)piperazin-1-yl)methyl)-3-azaspiro[5.5]undecane-3-carbonyl)-2-(trifluoromethoxy)phenyl)dihydropyrimidine-2,4(1H,3H)-dione]", "values": [{"measurement": "DC50", "setting": "KRAS-G12D [1]; class symbols", "value": "≤ 50", "unit": "nM"}, {"measurement": "Dmax", "setting": "KRAS-G12D [1]; class symbols", "value": "50 to 80", "unit": "%"}, {"measurement": "IC50", "setting": "[2]; class symbols", "value": "≤ 50", "unit": "nM"}, {"measurement": "IC50", "setting": "[3]; class symbols", "value": "100 to 500", "unit": "nM"}]}
{"smiles": "C#Cc1c(F)ccc2cc(O)cc(-c3ncc4c(N5CC6CCC(C5)N6)nc(SCC5(CN6CCN(CC7CCC8(CC7)CCN(C(=O)c7ccc(OC)c(N9CCC(=O)NC9=O)c7)CC8)CC6)CC5)nc4c3F)c12", "note": "[Example 54, 1-(5-(9-((4-((1-(((4-(3,8-diazabicyclo[3.2.1]octan-3-yl)-7-(8-ethynyl-7-fluoro-3-hydroxynaphthalen-1-yl)-8-fluoropyrido[4,3-d]pyrimidin-2-yl)thio)methyl)cyclopropyl)methyl)piperazin-1-yl)methyl)-3-azaspiro[5.5]undecane-3-carbonyl)-2-methoxyphenyl)dihydropyrimidine-2,4(1H,3H)-dione]", "values": [{"measurement": "IC50", "setting": "[2]; class symbols", "value": "≤ 50", "unit": "nM"}, {"measurement": "IC50", "setting": "[3]; class symbols", "value": "≤ 50", "unit": "nM"}]}
{"smiles": "C#Cc1c(F)ccc2cc(O)cc(-c3ncc4c(N5CC6CCC(C5)N6)nc(OCCN5CCN(CC6CCC7(CC6)CCN(C(=O)c6ccc(Cl)c(N8CCC(=O)NC8=O)c6)CC7)CC5)nc4c3F)c12", "note": "[Example 60, 1-(5-(9-((4-(2-((4-(3,8-diazabicyclo[3.2.1]octan-3-yl)-7-(8-ethynyl-7-fluoro-3-hydroxynaphthalen-1-yl)-8-fluoropyrido[4,3-d]pyrimidin-2-yl)oxy)ethyl)piperazin-1-yl)methyl)-3-azaspiro[5.5]undecane-3-carbonyl)-2-chlorophenyl)dihydropyrimidine-2,4(1H,3H)-dione]", "values": [{"measurement": "IC50", "setting": "[2]; class symbols", "value": "≤ 50", "unit": "nM"}, {"measurement": "IC50", "setting": "[3]; class symbols", "value": "100 to 500", "unit": "nM"}]}
{"smiles": "C#Cc1c(F)ccc2cc(O)cc(-c3ncc4c(N5CC6CCC(C5)N6)nc(OCC5(CN6CCC(CCOCC7(OC)CCN(C(=O)c8ccc(Cl)c(N9CCC(=O)NC9=O)c8)CC7)CC6)CC5)nc4c3F)c12", "note": "[Example 67, 1-(5-(4-((2-(1-((1-(((4-(3,8-diazabicyclo[3.2.1]octan-3-yl)-7-(8-ethynyl-7-fluoro-3-hydroxynaphthalen-1-yl)-8-fluoropyrido[4,3-d]pyrimidin-2-yl)oxy)methyl)cyclopropyl)methyl)piperidin-4-yl)ethoxy)methyl)-4-methoxypiperidine-1-carbonyl)-2-chlorophenyl)dihydropyrimidine-2,4(1H,3H)-dione]", "values": [{"measurement": "IC50", "setting": "[2]; numeric values", "value": 33.6, "unit": "nM"}, {"measurement": "IC50", "setting": "[3]; numeric values", "value": 36.5, "unit": "nM"}]}
{"smiles": "C#Cc1c(F)ccc2cc(O)cc(-c3ccc4c(N5CC6CCC(C5)N6)nc(OCC5(CN6CCN(CC7CCC8(CC7)CCN(C(=O)c7ccc(Cl)c(N9CCC(=O)NC9=O)c7)CC8)CC6)CC5)nc4c3F)c12", "note": "[Example 72, 1-(5-(9-((4-((1-(((4-(3,8-diazabicyclo[3.2.1]octan-3-yl)-7-(8-ethynyl-7-fluoro-3-hydroxynaphthalen-1-yl)-8-fluoroquinazolin-2-yl)oxy)methyl)cyclopropyl)methyl)piperazin-1-yl)methyl)-3-azaspiro[5.5]undecane-3-carbonyl)-2-chlorophenyl)dihydropyrimidine-2,4(1H,3H)-dione]", "values": [{"measurement": "DC50", "setting": "KRAS-G12D [1]; numeric values", "value": 101, "unit": "nM"}, {"measurement": "Dmax", "setting": "KRAS-G12D [1]; numeric values", "value": 82.6, "unit": "%"}, {"measurement": "IC50", "setting": "[2]; numeric values", "value": 8.64, "unit": "nM"}]}
{"smiles": "C#Cc1c(F)ccc2cc(O)cc(-c3ncc4c(N5CC6CCC(C5)N6)nc(OC[C@@H](CN5CCN(CC6CCC7(CC6)CCN(C(=O)c6ccc(C)c(N8CCC(=O)NC8=O)c6)CC7)CC5)OC)nc4c3F)c12", "note": "[Example 172, 1-(5-(9-((4-((R)-3-((4-(3,8-diazabicyclo[3.2.1]octan-3-yl)-7-(8-ethynyl-7-fluoro-3-hydroxynaphthalen-1-yl)-8-fluoropyrido[4,3-d]pyrimidin-2-yl)oxy)-2-methoxypropyl)piperazin-1-yl)methyl)-3-azaspiro[5.5]undecane-3-carbonyl)-2-methylphenyl)dihydropyrimidine-2,4(1H,3H)-dione]", "values": [{"measurement": "DC50", "setting": "KRAS-G12D [4]", "value": 113, "unit": "nM"}, {"measurement": "Dmax", "setting": "KRAS-G12D [4]", "value": 55, "unit": "%"}]}
{"smiles": "C#Cc1c(F)ccc2cc(O)cc(-c3ncc4c(N5CC6CCC(C5)N6)nc(OC[C@H](O)CN5CCN(CC6CCC7(CC6)CCN(C(=O)c6ccc(OC)c(N8CCC(=O)NC8=O)c6)CC7)CC5)nc4c3F)c12", "note": "[Example 191, 1-(5-(9-((4-((R)-3-((4-(3,8-diazabicyclo[3.2.1]octan-3-yl)-7-(8-ethynyl-7-fluoro-3-hydroxynaphthalen-1-yl)-8-fluoropyrido[4,3-d]pyrimidin-2-yl)oxy)-2-hydroxypropyl)piperazin-1-yl)methyl)-3-azaspiro[5.5]undecane-3-carbonyl)-2-methoxyphenyl)dihydropyrimidine-2,4(1H,3H)-dione]", "values": [{"measurement": "DC50", "setting": "KRAS-G12D [4]", "value": 149, "unit": "nM"}, {"measurement": "Dmax", "setting": "KRAS-G12D [4]", "value": 81.9, "unit": "%"}]}
